These results are taken from patent US8778985B2, “Inhibiting amyloid-beta peptide/rage interaction at the blood-brain barrier” (The University of Rochester, priority 2006, dated 2014).

The target in this assay is T1, RAGE (Homo sapiens, UniProt Q15109).
T1 construct: expressed in transfected cells; host or cells: Chinese hamster ovary (CHO) cells
As to the kind of experiment: 125I-Aβ40 specific binding on RAGE-transfected CHO cells at 4° C., competitive inhibition. The following applies: for inhibitory constant (Ki) of Aβ-RAGE binding: competitive. The source says:
Data are mean±s.e.m., n=3 per group.
All three are tertiary amides substituted with a large, hydrophobic hydrocarbon moiety and a monosubstituted aromatic moiety. Linkage to the monosubstituted aromatic is either direct (FPS2) or via an alkyl (FPS1) or heteroaromatic (FPS3) spacer. Two of the compounds also feature a highly electron-poor substituted benzene ring (3-nitro, 4-chloro for FPS1; 3,5-dinitro for FPS2).

SMILES strings stand for the structures.

T1 sequence (Q15109 23-404): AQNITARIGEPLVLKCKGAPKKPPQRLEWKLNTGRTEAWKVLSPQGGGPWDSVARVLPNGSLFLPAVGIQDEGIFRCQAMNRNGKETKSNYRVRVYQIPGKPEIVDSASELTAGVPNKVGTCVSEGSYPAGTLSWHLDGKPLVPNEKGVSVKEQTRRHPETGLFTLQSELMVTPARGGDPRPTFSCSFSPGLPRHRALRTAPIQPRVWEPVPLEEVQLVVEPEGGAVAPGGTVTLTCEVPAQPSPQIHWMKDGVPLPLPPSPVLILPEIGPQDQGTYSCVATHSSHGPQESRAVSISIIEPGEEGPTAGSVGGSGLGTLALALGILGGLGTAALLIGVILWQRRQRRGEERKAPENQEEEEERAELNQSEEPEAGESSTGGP

Consider `CCOCCCN(CC(=O)N(Cc1cccn1Cc1ccc(F)cc1)C1CCCCC1)C(=O)C(C)(C)CCl` [FPS1, 3-chloro-N-[2-[cyclohexyl[[1-[(4-fluorophenyl)methyl]-1H-pyrrol-2-yl]methyl]amino]-2-oxoethyl]-N-(3-ethoxypropyl)-2,2-dimethyl-(9Cl)-propanamide], for which the “Ki/Kd ratio (Ki compound's inhibitory constant, Kd Aβ-RAGE binding constant)” value is 2.6 and the “inhibitory constant (Ki) of Aβ-RAGE binding” value is recorded as “low”.
The corresponding values for `CCCCCC(=Cc1ccccc1)CN(CCc1c[nH]c2ccccc12)C(=O)c1ccc(Cl)c([N+](=O)[O-])c1` [FPS3, 4-chloro-N-[2-(1H-indo-3-yl)-ethyl]-3-nitro-N-(2-pentyl-3-phenyl-allyl)-benzamide] are 1.6 and “low”.
